Reference: ChEMBL document CHEMBL1153761, “Bisnicalaterine A, a vobasine-vobasine bisindole alkaloid from Hunteria zeylanica” (J Nat Prod, 2009)
In brackets after ≈: the same amount, converted by molar mass.

Columns and labels:
Type in all cases: functional, cell-based
NCI-H226 = assay: Cytotoxicity against human NCI-H226 cells after 48 hrs by MTT assay; conditions: NCI-H226, 48 h
HCT-116 = assay: Cytotoxicity against human HCT116 cells after 48 hrs by MTT assay; conditions: HCT-116, 48 h
HL-60 = assay: Cytotoxicity against human HL60 cells after 48 hrs by MTT assay; conditions: HL-60, 48 h
RPMI-8226 = assay: Cytotoxicity against human RPMI8226 cells after 48 hrs by MTT assay; conditions: RPMI-8226, 48 h
MCF7 = assay: Cytotoxicity against human MCF7 cells after 48 hrs by MTT assay; conditions: MCF7, 48 h

C/C=C1/CN(C)[C@H]2Cc3c([nH]c4ccccc34)[C@H](n3c4c(c5ccccc53)C[C@H]3[C@@H](C(=O)OC)[C@H](C[C@H]4O)/C(=C\C)CN3C)C[C@H]1[C@@H]2C(=O)OC [BISNICALATERINE A]
IC50 (NCI-H226): 28.1 µg/mL (≈ 40.7 µM)
IC50 (HCT-116): 21.9 µg/mL (≈ 31.7 µM)
IC50 (HL-60): 16.2 µg/mL (≈ 23.4 µM)
IC50 (RPMI-8226): 31.3 µg/mL (≈ 45.3 µM)
IC50 (MCF7): 38 µg/mL (≈ 55 µM)
